Laboratory results published in ChEMBL document CHEMBL3872220, “Amphiphilic xanthones as a potent chemical entity of anti-mycobacterial agents with membrane-targeting properties” (Eur J Med Chem, 2016).
Converted amounts (≈) assume the structure as drawn.

What was measured:
[1] = system: Mycolicibacterium smegmatis; assay: Antimycobacterial activity against Mycobacterium smegmatis MC2 155 assessed as ATP leakage by measuring intracellular ATP at MIC measured at 9 hrs post dose by luciferase reporter gene assay; format: functional, str. MC2 155
CYP2C19 = CYP2C19 (Homo sapiens, UniProt P33261); assay: Inhibition of CYP2C19 in human liver microsomes at 10 uM using omeprazole as substrate preincubated for 5 min followed by NADPH addition measured after 10 mins by LC-MS/MS method relative to control; format: ADME; conditions: probe omeprazole
[2] = system: Mycolicibacterium smegmatis; assay: Antimycobacterial activity against Mycobacterium smegmatis MC2 155 assessed as ATP leakage by measuring intracellular ATP at 4 times MIC measured at 6 hrs post dose by luciferase reporter gene assay; format: functional, str. MC2 155
[3] = system: Mycolicibacterium smegmatis; assay: Antimycobacterial activity against Mycobacterium smegmatis MC2 155 assessed as ATP leakage by measuring intracellular ATP at MIC measured at 1 hr of post dose by luciferase reporter gene assay; format: functional, str. MC2 155
[4] = system: Mycolicibacterium smegmatis; assay: Antimycobacterial activity against Mycobacterium smegmatis MC2 155 assessed as ATP leakage by measuring extracellular ATP at 0.5 times MIC measured at 9 hrs post dose by luciferase reporter gene assay; format: functional, str. MC2 155
[5] = system: Mycolicibacterium smegmatis; assay: Antimycobacterial activity against Mycobacterium smegmatis MC2 155 assessed as ATP leakage by measuring intracellular ATP at 2 times MIC measured at 9 hrs post dose by luciferase reporter gene assay; format: functional, str. MC2 155
[6] = system: Mycolicibacterium smegmatis; assay: Antimycobacterial activity against Mycobacterium smegmatis MC2 155 assessed as ATP leakage by measuring extracellular ATP at 4 times MIC measured at 3 hrs post dose by luciferase reporter gene assay; format: functional, str. MC2 155
[7] = system: Mycolicibacterium smegmatis; assay: Antimycobacterial activity against Mycobacterium smegmatis MC2 155 assessed as ATP leakage by measuring intracellular ATP at 2 times MIC measured at 24 hrs post dose by luciferase reporter gene assay; format: functional, str. MC2 155
[8] = system: Mycolicibacterium smegmatis; assay: Antimycobacterial activity against Mycobacterium smegmatis MC2 155 assessed as ATP leakage by measuring intracellular ATP at 2 times MIC measured immediatey after addition of compounds by luciferase reporter gene assay; format: functional, str. MC2 155
[9] = system: Mycolicibacterium smegmatis; assay: Antimycobacterial activity against Mycobacterium smegmatis MC2 155 assessed as ATP leakage by measuring intracellular ATP at MIC measured immediatey after addition of compounds by luciferase reporter gene assay; format: functional, str. MC2 155
[10] = system: Mycolicibacterium smegmatis; assay: Antimycobacterial activity against Mycobacterium smegmatis MC2 155 after 24 hrs by broth dilution assay; format: functional; conditions: str. MC2 155, 24 h
[11] = system: Mycolicibacterium smegmatis; assay: Antimycobacterial activity against Mycobacterium smegmatis MC2 155 assessed as ATP leakage by measuring extracellular ATP at MIC measured at 6 hrs post dose by luciferase reporter gene assay; format: functional, str. MC2 155
[12] = system: Mycolicibacterium smegmatis; assay: Antimycobacterial activity against Mycobacterium smegmatis MC2 155 assessed as ATP leakage by measuring extracellular ATP at 4 times MIC measured immediatey after addition of compounds by luciferase reporter gene assay; format: functional, str. MC2 155
[13] = system: Mycolicibacterium smegmatis; assay: Antimycobacterial activity against Mycobacterium smegmatis MC2 155 assessed as ATP leakage by measuring extracellular ATP at 0.5 times MIC measured at 3 hrs post dose by luciferase reporter gene assay; format: functional, str. MC2 155
[14] = system: Mycolicibacterium smegmatis; assay: Antimycobacterial activity against Mycobacterium smegmatis MC2 155 assessed as ATP leakage by measuring intracellular ATP at 0.5 times MIC measured at 9 hrs post dose by luciferase reporter gene assay; format: functional, str. MC2 155
[15] = system: Mycolicibacterium smegmatis; assay: Antimycobacterial activity against Mycobacterium smegmatis MC2 155 assessed as ATP leakage by measuring intracellular ATP at 4 times MIC measured at 3 hrs post dose by luciferase reporter gene assay; format: functional, str. MC2 155
[16] = system: Mycolicibacterium smegmatis; assay: Antimycobacterial activity against Mycobacterium smegmatis MC2 155 assessed as ATP leakage by measuring intracellular ATP at 0.5 times MIC measured immediatey after addition of compounds by luciferase reporter gene assay; format: functional, str. MC2 155
[17] = system: Mycolicibacterium smegmatis; assay: Antimycobacterial activity against Mycobacterium smegmatis MC2 155 assessed as ATP leakage by measuring extracellular ATP at MIC measured at 3 hrs post dose by luciferase reporter gene assay; format: functional, str. MC2 155
[18] = Half life in rat liver microsomes at 1 uM preincubated for 5 mins followed by NADPH addition measured by LC-MS/MS method; format: ADME
[19] = system: Mycolicibacterium smegmatis; assay: Antimycobacterial activity against Mycobacterium smegmatis MC2 155 assessed as ATP leakage by measuring intracellular ATP at 0.5 times MIC measured at 3 hrs post dose by luciferase reporter gene assay; format: functional, str. MC2 155
[20] = system: Mycolicibacterium smegmatis; assay: Antimycobacterial activity against Mycobacterium smegmatis MC2 155 assessed as ATP leakage by measuring extracellular ATP at MIC measured at 24 hrs post dose by luciferase reporter gene assay; format: functional, str. MC2 155
[21] = system: Mycolicibacterium smegmatis; assay: Antimycobacterial activity against Mycobacterium smegmatis MC2 155 assessed as inhibition of respiratory ATP synthesis by measuring ATP level at 2 times MIC measured after 1 hr by luciferase reporter gene assay (reference value: 90.6%); format: functional, str. MC2 155; parameters: scale not given: the % may be the effect or the level left
[22] = system: Mycolicibacterium smegmatis; assay: Antimycobacterial activity against Mycobacterium smegmatis MC2 155 assessed as ATP leakage by measuring intracellular ATP at MIC measured at 6 hrs post dose by luciferase reporter gene assay; format: functional, str. MC2 155
[23] = Cytotoxicity against human corneal fibroblasts assessed as increase in LDH level measured after 4 hrs by Cytotox-one […] assay; format: toxicity, Corneal fibroblast
[24] = system: Mycolicibacterium smegmatis; assay: Antimycobacterial activity against Mycobacterium smegmatis MC2 155 assessed as ATP leakage by measuring intracellular ATP at MIC measured at 3 hrs post dose by luciferase reporter gene assay; format: functional, str. MC2 155
[25] = system: Mycolicibacterium smegmatis; assay: Antimycobacterial activity against Mycobacterium smegmatis MC2 155 assessed as ATP leakage by measuring extracellular ATP at 4 times MIC measured at 1 hr of post dose by luciferase reporter gene assay; format: functional, str. MC2 155
[26] = system: Mycolicibacterium smegmatis; assay: Antimycobacterial activity against Mycobacterium smegmatis MC2 155 assessed as ATP leakage by measuring intracellular ATP at 2 times MIC measured at 3 hrs post dose by luciferase reporter gene assay; format: functional, str. MC2 155
[27] = system: Mycolicibacterium smegmatis; assay: Antimycobacterial activity against Mycobacterium smegmatis MC2 155 assessed as ATP leakage by measuring intracellular ATP at 4 times MIC measured immediatey after addition of compounds by luciferase reporter gene assay; format: functional, str. MC2 155
[28] = system: Mycolicibacterium smegmatis; assay: Antimycobacterial activity against Mycobacterium smegmatis MC2 155 assessed as ATP leakage by measuring extracellular ATP at 2 times MIC measured at 1 hr of post dose by luciferase reporter gene assay; format: functional, str. MC2 155
[29] = system: Mycolicibacterium smegmatis; assay: Antimycobacterial activity against Mycobacterium smegmatis MC2 155 assessed as ATP leakage by measuring extracellular ATP at 4 times MIC measured at 6 hrs post dose by luciferase reporter gene assay; format: functional, str. MC2 155
[30] = system: Mycolicibacterium smegmatis; assay: Antimycobacterial activity against Mycobacterium smegmatis MC2 155 assessed as ATP leakage by measuring extracellular ATP at MIC measured at 1 hr of post dose by luciferase reporter gene assay; format: functional, str. MC2 155
[31] = system: Mycolicibacterium smegmatis; assay: Antimycobacterial activity against Mycobacterium smegmatis MC2 155 assessed as ATP leakage by measuring extracellular ATP at 2 times MIC measured at 6 hrs post dose by luciferase reporter gene assay; format: functional, str. MC2 155
[32] = system: Mycolicibacterium smegmatis; assay: Antimycobacterial activity against Mycobacterium smegmatis MC2 155 assessed as ATP leakage by measuring intracellular ATP at 0.5 times MIC measured at 1 hr of post dose by luciferase reporter gene assay; format: functional, str. MC2 155
CYP2D6 = CYP2D6 (Homo sapiens, UniProt P10635); assay: Inhibition of CYP2D6 in human liver microsomes at 10 uM using bufuralol as substrate preincubated for 5 min followed by NADPH addition measured after 10 mins by LC-MS/MS method relative to control; format: ADME; conditions: probe bufuralol
Sequence of CYP2D6 (P10635 whole entry): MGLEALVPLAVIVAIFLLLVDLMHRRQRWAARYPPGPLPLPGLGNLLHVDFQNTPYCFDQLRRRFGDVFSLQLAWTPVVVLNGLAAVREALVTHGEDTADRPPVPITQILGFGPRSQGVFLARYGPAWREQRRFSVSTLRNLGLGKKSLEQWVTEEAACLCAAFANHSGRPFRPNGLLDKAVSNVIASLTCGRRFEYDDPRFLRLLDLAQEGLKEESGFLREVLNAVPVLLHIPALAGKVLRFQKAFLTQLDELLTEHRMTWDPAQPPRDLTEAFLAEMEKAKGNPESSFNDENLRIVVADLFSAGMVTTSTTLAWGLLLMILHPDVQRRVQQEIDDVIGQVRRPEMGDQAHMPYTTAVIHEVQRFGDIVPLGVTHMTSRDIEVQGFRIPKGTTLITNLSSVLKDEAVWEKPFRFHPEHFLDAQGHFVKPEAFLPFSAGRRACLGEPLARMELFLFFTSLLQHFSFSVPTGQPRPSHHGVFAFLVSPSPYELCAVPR

Sequence of CYP2C19 (P33261 whole entry): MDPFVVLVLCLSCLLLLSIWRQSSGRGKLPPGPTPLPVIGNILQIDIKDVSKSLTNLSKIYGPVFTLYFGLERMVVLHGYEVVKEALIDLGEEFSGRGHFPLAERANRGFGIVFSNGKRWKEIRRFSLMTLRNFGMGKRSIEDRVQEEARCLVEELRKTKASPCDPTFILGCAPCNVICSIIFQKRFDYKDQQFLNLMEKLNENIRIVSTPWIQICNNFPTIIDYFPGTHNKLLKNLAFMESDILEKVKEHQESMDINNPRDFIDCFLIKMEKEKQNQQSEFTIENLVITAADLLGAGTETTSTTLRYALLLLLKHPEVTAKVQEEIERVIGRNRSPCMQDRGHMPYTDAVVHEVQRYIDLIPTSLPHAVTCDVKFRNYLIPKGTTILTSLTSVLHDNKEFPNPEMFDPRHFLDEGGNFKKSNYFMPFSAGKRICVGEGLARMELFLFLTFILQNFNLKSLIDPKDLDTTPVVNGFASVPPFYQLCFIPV

Row | Structure (SMILES) | Activity [1] [%] | inhibition at 10 min, 10 µM (CYP2C19) [%] | Activity [2] [%] | Activity [3] [%] | Activity [4] [%] | Activity [5] [%] | Activity [6] [%] | Activity [7] [%] | Activity [8] [%] | Activity [9] [%] | MIC90 [10] [µM] | Activity [11] [%] | Activity [12] [%] | Activity [13] [%] | Activity [14] [%] | Activity [15] [%] | Activity [16] [%] | Activity [17] [%] | half-life at 1 µM [18] [min] | Activity [19] [%] | also measured
1 | CCCN(CCC)CCCCOc1cc2oc3cc(OCCCCN(CCC)CCC)c(OC)c(CC=C(C)C)c3c(=O)c2c(O)c1CC=C(C)C | 10.6 | 19.2 | 16.5 | 11.5 | 33.5 | 3.9 | 91.1 | 4.7 | 96 | 97.7 | 3.2 (≈ 2.31 µg/mL) | 88 | 4.3 | 39 | 66.5 | 8.9 | 100 | 91.8 | > 30 | 61 | Activity [20]: 88.1%; Activity [21]: 5.9%; Activity [22]: 12%; CC50 at 4 h [23]: > 150 µM; Activity [24]: 8.2%; Activity [25]: 94.3%; Activity [26]: 2.6%; Activity [27]: 95.7%; Activity [28]: 97.2%; Activity [29]: 83.5%; Activity [30]: 88.5%; Activity [31]: 96.1%; Activity [32]: 75.3%; inhibition at 10 min, 10 µM (CYP2D6): 0%
2 | COc1c(OCCCCN2CCOCC2)cc2oc3cc(OCCCCN4CCOCC4)c(CC=C(C)C)c(O)c3c(=O)c2c1CC=C(C)C | 41.4 | 17 | 6.7 | 93.5 | 26.5 | 15.6 | 55.3 | 5.3 | 97 | 97.7 | 35 (≈ 24.3 µg/mL) | 36.3 | 3.8 | 5.9 | 73.5 | 44.7 | 100 | 44.7 | > 30 | 94.1 | Activity [20]: 88.7%; Activity [21]: 50.2%; Activity [22]: 63.7%; CC50 at 4 h [23]: > 150 µM; Activity [24]: 55.3%; Activity [25]: 42.7%; Activity [26]: 36.6%; Activity [27]: 96.2%; Activity [28]: 30.4%; Activity [29]: 91.3%; Activity [30]: 6.5%; Activity [31]: 76.7%; Activity [32]: 97.8%; inhibition at 10 min, 10 µM (CYP2D6): 0%
3 | CCN(CC)CCCCOc1cc2oc3cc(OCCCCN(CC)CC)c(OC)c(CC=C(C)C)c3c(=O)c2c(O)c1CC=C(C)C | 17.6 | 3 | 3.3 | 57.9 | 23.2 | 3.4 | 97.5 | 13.3 | 98.7 | 99.2 | 3.2 (≈ 2.13 µg/mL) | 79.9 | 1.3 | 16.4 | 76.8 | 2.5 | 100 | 88 | > 30 | 83.6 | Activity [20]: 44.4%; Activity [21]: 5.8%; Activity [22]: 20.1%; CC50 at 4 h [23]: > 150 µM; Activity [24]: 12%; Activity [25]: 97.4%; Activity [26]: 2.7%; Activity [27]: 98.7%; Activity [28]: 95.6%; Activity [29]: 96.7%; Activity [30]: 42.1%; Activity [31]: 96.8%; Activity [32]: 93.2%; inhibition at 10 min, 10 µM (CYP2D6): 6%
